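Assay format: 96-well plates, 48-hour exposure. At the GI50, growth is halved. At the TGI there is no net growth.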

For ten compounds, GI50 and TGI results are on record in PubChem BioAssay (NCI).

Test in all cases: inhibition of tumour cell growth, NCI panel, 48 h
Test [1] has as its system A498 renal.
Test [2] relates to CAKI-1 renal.
Test [3] has as its system COLO 205 colon.
In test [4] the test system is RXF 393 renal.
The subject of test [5] is SF-268 CNS.
Test [6] relates to SK-MEL-2 melanoma.
Test [7] has as its system SK-MEL-5 melanoma.
Test [8] has as its system SN12C renal.
The subject of test [9] is SNB-19 CNS.
For test [10], the system named is TK-10 renal.

As to `COc1ccc(NC(=O)c2sc3nc(C)c(C(O)c4ccccc4)cc3c2N)cc1` (stereo not given), the GI50 is 0.212 µM in [1]; 3520 nM in test [2]; 3080 nM in test [3]; 2250 nM in [4]; 4060 nM in test [5]; 4880 nM in [6]. The GI50 is 1660 nM in test [7], 3360 nM in test [8], 5.24 µM in test [9] and 5390 nM in [10]. Besides, the TGI is 0.704 µM in [1]; over 100 µM in [2]; 13.9 µM in test [3]; 49.1 µM in test [4]; over 100 µM in [5]; 85.7 µM in [6]. Further, the TGI is 4.04 µM in test [7], over 100 µM in test [8], over 100 µM in test [9] and over 100 µM in test [10].

Turning to `COc1ccc(/C=C2\CCC(C)(CN(C)C)C2=O)cc1` (stereo not given), the TGI in [1], in test [2], in test [3], in test [4], in test [5] and in test [6] was over 100 µM in each case. For the same compound, the TGI in [7], in [8], in [9] and in test [10] was over 100 µM each time.

`NS(=O)(=O)c1ccc(CCN=C=S)cc1`: the GI50 in test [1] was 2.21 µM; in test [2] it was 1530 nM; in test [3], 2150 nM; in test [4], 1620 nM; in test [5] it was 2830 nM; in [6], 2300 nM. Also, the GI50 in test [7] is 2140 nM; in test [8], 2170 nM; in test [9], 2.92 µM; in test [10], 987 nM. Besides, the TGI in test [1] was 7.99 µM; in test [2], 3.03 µM; in test [3], 4.52 µM; in test [4] it was 3.18 µM; in test [5], 10.1 µM; in test [6], 5.84 µM. Besides, the TGI in [7] worked out at 4.89 µM; in test [8], 5.14 µM; in test [9] it was 9.26 µM; in [10], 3.79 µM.

As for `COC1=CC(c2ccc[nH]2)=N/C1=C\c1ccc[nH]1`, the GI50 in test [1] is 3.65 µM; in test [2], 151 nM; in test [3] it was 89.7 nM; in test [4], 378 nM; in [5], 254 nM; in test [6], 218 nM. In addition, the GI50 was 64 nM in test [7], 433 nM in test [8], 3.17 µM in test [9] and 232 nM in test [10]. Besides, the TGI turned out to be 14.4 µM in test [1]; 3.26 µM in test [2]; 5.7 µM in [3]; 2.7 µM in test [4]; 15.9 µM in test [5]; 0.809 µM in test [6]. Besides, the TGI in [7] worked out at 0.261 µM; in [8], 19.7 µM; in test [9], 18.4 µM; in test [10], 7.79 µM.

Take `NCc1nnn(Cc2ccccc2)c1N`: the TGI in [1], in test [2], in test [3], in test [4], in test [5] and in test [6] was over 100 µM each time. In addition, the TGI in test [7], in test [8], in test [9] and in test [10] was over 100 µM throughout.

In the case of `COc1ccc2nc3ccccc3c(NCCCCCCN(C)CCCl)c2c1`, the TGI is 2.53 µM in test [1]; 3.19 µM in [2]; 1.52 µM in test [3]; 1.23 µM in [4]; 2.48 µM in [5]; 1.81 µM in test [6]. The TGI was 2.16 µM in [7], 1.75 µM in [8], 2.77 µM in [9] and 4.91 µM in test [10].

Consider `COc1cc(/C=C2\COc3ccc(O)c(O)c3C2=O)cc(OC)c1`, for which the GI50 was 5.12 µM in test [1]; 1270 nM in test [2]; 1750 nM in test [3]; 1470 nM in test [4]; 1680 nM in test [5]; 1930 nM in [6]. Besides, the GI50 is 1720 nM in test [7], 1630 nM in [8], 2.17 µM in test [9] and 2260 nM in test [10]. Also, the TGI in [1] is 19.1 µM; in test [2], 3.04 µM; in test [3], 5.68 µM; in test [4], 3.01 µM; in test [5], 5.34 µM; in test [6] it was 5.23 µM. Moreover, the TGI in [7] stood at 3.13 µM; in [8] it was 8.24 µM; in [9] it was 7.47 µM; in [10], 6.89 µM.

Regarding `CCOC(=O)c1cn(Cc2ccccc2)c(=O)n1Cc1ccccc1`, the TGI in test [1], in test [2], in [3], in test [4], in test [5] and in test [6] was over 100 µM throughout. Also, the TGI in test [7], in test [8], in test [9] and in test [10] was over 100 µM each time.

Turning to `COC1=CC(c2ccc[nH]2)=N/C1=C\c1[nH]c(C)c(C(=O)CCCCC(=O)Nc2ccccc2)c1C`, the GI50 was 5.92 µM in test [1]; 4750 nM in [2]; 1750 nM in [3]; 1030 nM in test [4]; 1260 nM in test [5]; 11900 nM in test [6]. The GI50 was 4220 nM in [7], 1670 nM in [8], 6.09 µM in test [9] and 1660 nM in [10]. For the same compound, the TGI was found to be 20.6 µM in test [1]; 11.9 µM in test [2]; 3.8 µM in [3]; 2.23 µM in test [4]; 2.72 µM in test [5]; 26.7 µM in test [6]. Further, the TGI in test [7] worked out at 11.6 µM; in test [8], 4.38 µM; in test [9], 20.8 µM; in [10], 3.38 µM.

Take `O=C(NO)C12C3C4C1C1C2C3C41C(=O)NO` (stereo not given): the TGI in test [1], in [2], in test [3], in test [4], in test [5] and in test [6] was over 100 µM in each case. Moreover, the TGI in [7], in test [8], in [9] and in test [10] was over 100 µM each time.
